{"source": "patent US5731357A", "about": "“Immunomodulating active substance” (priority 1996, dated 1998)", "key": {"[1]": {"test_system": "graft-versus-host reaction (GVHR)", "test": "Graft-versus-host reaction (GVHR)", "format": "in vivo, mouse", "settings": "inosiplex 50.0 mg/kg", "procedure": "(§1) In was dissolved in physiological solution and administered intraperitonerally at single doses together with antigen (sheep erytrcytes). Physiological solution was used as a control.\n(§2) 3. DSR deermination using intravenoous immunization of mice with sheep erythrocytes administered at a dose of 2×10^5 cells. A resolution dose (1×10^8 cells in 0.04 ml of physiological solution) was injected in a hind footpad on the 5th day following immunization. Local inflammatory reaction was accounted for 24 hours later by the difference of mass between experimental (Re) and control (Rc) footpads. Reaction index (RI) was calculated for each mouse using the following formula: [formula] 4. GVHR determination. GVHR was induced by subcutaneous administration of 2×10^6 lymph node cells of […] (CBA) into right hind footpads of line F1 (CBA×C57B1/6) mice. Syngeneic lymphocytes were administered into left footpads. Cell count was determined in 5 ml of homogenate of left (control) and right (experiment) lymph nodes."}, "[2]": {"test_system": "delayed skin reaction (DSR) to sheep erythrocytes", "test": "Delayed skin reaction (DSR)", "format": "in vivo, mouse", "settings": "inosiplex 0.5, 5.0 and 50.0 mg/kg; mice of two lines; listed as In", "procedure": "Experimental animals were intraperitoneally administered doses of 10.0 and 100.0 mg/kg in 0.1 ml in parallel to antigen administration; similar doses were given per os for 5 days before antigen administration.\nas §1, §2"}, "[3]": {"test_system": "hemagglutinin titers for sheep erythrocytes in mouse serum", "test": "Hemagglutinin (HA) titer for sheep erythrocytes in mouse serum", "format": "in vivo"}, "[4]": {"test_system": "ink clearance, phagocytic activity in vivo", "test": "Ink clearance (phagocytosis in vivo)", "set-up": "species or system mouse", "settings": "In intraperitoneally 0.5, 5.0 and 50.0 mg/kg", "procedure": "5. Estimation of phagocytic activity of peritoneal macrophages in mice, using JgG-opsonized sheep erythrocytes as the phagocytosis target /10/. Macrophages were attracted by 4-percent hydrolyzed starch solution. On the 3rd or 4th day, 0.5 ml of 5-percent sheep erythrocyte suspension were administered intraperitoneally. Following 60 minutes, exudate was removed. Non phagocytic sheep erythrocytes were subjected to lysis. Cell suspension was washed out. The preparation stained per Romanovsky-Gimze was determined for phagocyting cell percentage. To determine phagocytic index (PI1), the number of sheep erythroccytes captured was calculated spectrophotometrically /11/ by hemoglobin concentration using a calibration curve. Phagocytic index (P12) was determined again following 3 hours of incubation at 37° C. Phagocytosis completion index (PCI) was calculatd using the following formula: [formula] […] Blood taking completed, animals were killed and body weight, liver and spleen weight were measured. Optical density of hemolyzed blood determined spectrophometrically at 610 nm wavelenght, and the f (D) t curve was plotted. […] Phagocytosys constant (K) was calculated using the following formula: [formula] and then true phagocytosis index (α) was calculated using the following formula: [formula] […]"}, "[5]": {"test_system": "peritoneal macrophages", "test": "Phagocytic activity of peritoneal macrophages (opsonized sheep erythrocytes)", "format": "in vivo, mouse", "settings": "for Stimulation degree (phagocytosis completion index increase): F1 mice", "procedure": "5. Estimation of phagocytic activity of peritoneal macrophages in mice, using JgG-opsonized sheep erythrocytes as the phagocytosis target /10/. Macrophages were attracted by 4-percent hydrolyzed starch solution. On the 3rd or 4th day, 0.5 ml of 5-percent sheep erythrocyte suspension were administered intraperitoneally. Following 60 minutes, exudate was removed. Non phagocytic sheep erythrocytes were subjected to lysis. Cell suspension was washed out. The preparation stained per Romanovsky-Gimze was determined for phagocyting cell percentage. To determine phagocytic index (PI1), the number of sheep erythroccytes captured was calculated spectrophotometrically /11/ by hemoglobin concentration using a calibration curve. Phagocytic index (P12) was determined again following 3 hours of incubation at 37° C. Phagocytosis completion index (PCI) was calculatd using the following formula: [formula] […] Then, for 15 minutes blood was taken from orbital sinus (0.020 ml) every 3 minutes and introduced into 1 ml of 3-percent acetic acid. Blood taking completed, animals were killed and body weight, liver and spleen weight were measured. Optical density of hemolyzed blood determined spectrophometrically at 610 nm wavelenght, and the f (D) t curve was plotted. Points lg (0) (zero time) and lg(10) (on the curve) were located. Phagocytosys constant (K) was calculated using the following formula: [formula] and then true phagocytosis index (α) was calculated using the following formula: [formula] 7. Complement activity determination using the titration technique employing rabbit erythrocytes treated with hyperimmune antiserum of guinea pig /12/ for direct activation route and employing rabbit erythrocytes treated with potassium iodide solution /13/ for alternative activation route. Activity was expressed in units 50-percent lysis per ml of serum (CH50).\nThe effect of In given at doses of 0.5, 5.0 and 50.0 mg/kg on phagocytosis index was studied in hybrid line F1 (CBA×C57B1/6) mice, with he drug administered intraperitonreallly 30 minutes before injection of the phagocytosis target, i.e. sheep erythrocytes."}, "[6]": {"test_system": "antibody-forming cells in mouse spleen (sheep erythrocytes as antigen)", "test": "Antibody-forming cell (AFC) count in mouse spleen, local hemolysis reaction (humoral immune response)", "format": "in vivo", "settings": "for AFC stimulation degree: C57B1/6; for AFC count per 10^6 nucleated spleen cells: C57B1/6 males 20-22 g; for AFC stimulating effect: 50.0 mg/kg, low responsive line mice"}, "[7]": {"settings": "third dose column (printed 5.0 mg/kg), 2 × 10^7 sheep erythrocytes"}}, "data": [{"smiles": "CC(=O)Nc1ccc(C(=O)O)cc1.CC(=O)Nc1ccc(C(=O)O)cc1.CC(=O)Nc1ccc(C(=O)O)cc1.CC(O)CN(C)C.CC(O)CN(C)C.CC(O)CN(C)C.O=c1[nH]cnc2c1ncn2[C@@H]1O[C@H](CO)[C@@H](O)[C@H]1O", "note": "[Inosiplex]", "values": [{"measurement": "GVHR (in words)", "setting": "[1]", "result": "slight inhibitory effect"}, {"measurement": "DSR intensity (in words)", "setting": "[2]", "result": "no changes in the reaction intensity"}, {"measurement": "HA titer, 14th day after immunisation", "setting": "[3]; 250.0 mg/kg, CBA males 20-22 g, n = 8, suboptimum sheep erythrocyte dose, P< 0.02", "result": 8.5, "unit": "log2"}, {"measurement": "stimulation of hemagglutinin production (fold)", "setting": "[3]; 250.0 mg/kg, line CBA", "result": "as much as two times"}, {"measurement": "stimulation of hemagglutinin production (log2 of hemagglutinin titer)", "setting": "[3]; 250.0 mg/kg, line CBA", "result": "1 log2 of hemagglutinin titer"}, {"measurement": "effect on hemagglutinin titer (in words)", "setting": "[3]; 0.5, 5.0 and 25.0 mg/kg, line CBA, 7th and 14th day, suboptimum immunisation", "result": "no stimulating effect"}, {"measurement": "blood clearence rate (in words)", "setting": "[4]", "result": "no effect on blood clearence rate"}, {"measurement": "capturing intensity of inert ink particles (in words)", "setting": "[4]", "result": "no changes in capturing intensity of inert ink particles"}, {"measurement": "Stimulation degree (phagocytosis completion index increase)", "setting": "[5]; 5.0 mg/kg, intraperitoneal", "result": 39, "unit": "%"}, {"measurement": "Stimulation degree (phagocytosis completion index increase)", "setting": "[5]; 50.0 mg/kg, intraperitoneal", "result": 76, "unit": "%"}, {"measurement": "phagocytosis and digesting ability of macrophages (in words)", "setting": "[5]; common to inosplex and Rp", "result": "Stimulation of phagocytosis and digesting ability of macrophages"}, {"measurement": "phagocytosis index (in words)", "setting": "[5]; inosiplex 0.5 mg/kg, F1, intraperitoneal", "result": "no stimulation effect"}, {"measurement": "stimulation of phagocytosis completion", "setting": "[5]; intraperitoneal 5.0 and 50.0 mg/kg", "result": "1.4-1.7 times"}, {"measurement": "AFC stimulation degree", "setting": "[6]; 0.5 mg/kg, 10^8 sheep erythrocytes (optimum)", "result": 90, "unit": "%"}, {"measurement": "AFC count per 10^6 nucleated spleen cells", "setting": "[6]; 0.5 mg/kg, 2 × 10^7 sheep erythrocytes", "result": "52(63'44)"}, {"measurement": "AFC count per 10^6 nucleated spleen cells", "setting": "[6]; 0.5 mg/kg, 10^8 sheep erythrocytes, p < 0.05", "result": "158(186'134)"}, {"measurement": "AFC stimulation degree", "setting": "[6]; 5.0 mg/kg, 2 × 10^7 sheep erythrocytes (suboptimum)", "result": 38, "unit": "%"}, {"measurement": "AFC stimulation degree", "setting": "[6]; 5.0 mg/kg, 10^8 sheep erythrocytes (optimum)", "result": 82, "unit": "%"}, {"measurement": "AFC count per 10^6 nucleated spleen cells", "setting": "[6]; 5.0 mg/kg, 2 × 10^7 sheep erythrocytes", "result": "117(149'98)"}, {"measurement": "AFC count per 10^6 nucleated spleen cells", "setting": "[6]; 5.0 mg/kg, 10^8 sheep erythrocytes, p < 0.05", "result": "151(169'134)"}, {"measurement": "AFC stimulating effect", "setting": "[6]; optimum immunisation", "result": 139, "unit": "%"}, {"measurement": "AFC stimulating effect", "setting": "[6]; suboptimum immunisation", "result": 32, "unit": "%"}, {"measurement": "stimulation of humoral immune response", "setting": "[6]; 5.0 and 50.0 mg/kg, animals low responsive to antigen", "result": "1.3-1.8 fold"}, {"measurement": "antibody-forming cells in the spleen (in words)", "setting": "[6]; common to inosplex and Rp", "result": "Stimulation of forming antibody-forming cells in the spleen"}, {"measurement": "humoral immune reaction (in words)", "setting": "[6]; strong-replied animals, optimal dose of antigen", "result": "Suppress of humoral immune reaction"}, {"measurement": "AFC stimulation degree", "setting": "[6]; [7]", "result": 32, "unit": "%"}, {"measurement": "AFC stimulation degree", "setting": "[6]; third dose column (printed 5.0 mg/kg), 10^8 sheep erythrocytes", "result": 139, "unit": "%"}, {"measurement": "AFC count per 10^6 nucleated spleen cells", "setting": "[6]; [7]", "result": "112(141'89)"}, {"measurement": "AFC count per 10^6 nucleated spleen cells", "setting": "[6]; third dose column (printed 5.0 mg/kg), 10^8 sheep erythrocytes, p < 0.01", "result": "199(245'162)"}, {"measurement": "humoral immune reaction (in words)", "setting": "[6]; weak-replied animals, and strong-replied mice with suboptimum dose of antigen", "result": "Stimulation of humoral immune reaction"}]}]}
